Here are results for 1 compound from patent publication US10647690B2, “2,3-epoxy succinyl derivative, preparation method and use thereof” (Institute of Pharmacology and Toxicology Academy of …, priority 2016, dated 2020).

Assay type in all cases: biochemical
For test [1], the target named is T1, Cathepsin S (Homo sapiens, UniProt P25774).
T1 construct: purchased Biovision K149-100
Description: IC50 determination against Cathepsin S (Biovision kit K149-100). The conditions noted are these: CTSS. The method, then: (§1) 2. Method for determining IC50 of compounds against cathepsin:
IC50 of compounds against Cathepsin S was determined by using Cathepsin S Inhibitor Screening Kit (Product No. K149-100) from Biovision Company.
2.1.1.4 Preparation of Cathepsin S solution: Cathepsin S enzyme (46 μl) was added to Cathepsin S buffer (2254 μl), and mixed well, to prepare Cathepsin S enzyme solution with a volume of 2.3 ml, which was placed on ice for further use.
(§2) 2.1.2 Preparation of compound solutions: 30 mM and 10 mM compound stock solutions, and control compounds were gradiently diluted in DMSO at a ratio of 1:3, wherein the maximum dilution fold was 19683; the gradiently diluted compound solution (3 μl) was added to Cathepsin K, B, L, and S buffer (27 μl), respectively, and mixed well, wherein the control compounds (FF-FMK, F-F-FMK, FF-FMK and Z-FF-FMK) were at the concentrations of 66.67, 22.22, 7.41, 2.47, 0.82, 0.27, 0.091, 0.03, 0.01, 0.0034 and 0 μM, respectively, the test compounds were at the concentrations of 1000, 333.3, 111.1, 37, 12.3, 4.1, 1.4, 0.46, 0.15, 0.05 and 0 μM, respectively, and the final concentration of DMSO was 10%.
2.1.3.4 Cathepsin S: Cathepsin S substrate (90 μl) was added to Cathepsin S buffer (1710 μl), and mixed well, to prepare Cathepsin S substrate solution with a volume of 1.8 ml, which was placed on ice for further use.
(§3) Method for screening cathepsin inhibitors: the cathepsin solution (prepared in Item 2.1.1) was added to a 384-well plate (ProxiPlate-384 Plus, Perkinelmer) at 10 μl/well, and centrifuged at 1000 rpm for Imin; the compound solution (prepared in Item 2.1.2) was then added at 2 μl/well, and every concentration was repeated in two wells; the final concentrations of the test compounds were 100, 33.3, 11.1, 3.7, 1.23, 0.41, 0.14, 0.046, 0.015, 0.005 and 0 μM, respectively, wherein the final concentration of DMSO was 1%; after centrifugation at 1000 rpm for 1 min, the plate was put in a 25° C. incubator for 15 min; the cathepsin substrate solution was then added at 8 µl/well, and centrifuged at 1000 rpm for 1 min; and finally, the fluorescence signal was read in Enspire, wherein the exciting light was at a wavelength of 400 nm, the emitting light was at a wavelength of 505 nm, and continuous reading was performed at 37° C. for 120 min.
(§4) Data analysis: the slope (S) for all the samples was calculated by ΔRFU(RFU2−RFU1) and time ΔT(T2−T1), including negative control (Enzyme Control, EC) and positive control (Inhibitor Control, IC: 10 μM (FF-FMK, F-F-FMK, FF-FMK and Z-FF-FMK), and the calculation formula was as followed: Relative inhibition rate %=(SEC−SS)/(SEC−SIC)*100. The IC50 for each compound was obtained by means of fitting by software GraphPad Prism 5.0.

The target in test [2] is T2, Cathepsin K (Homo sapiens, UniProt P43235).
T2 construct: purchased Biovision K150-100
T2 sequence (P43235 115-329): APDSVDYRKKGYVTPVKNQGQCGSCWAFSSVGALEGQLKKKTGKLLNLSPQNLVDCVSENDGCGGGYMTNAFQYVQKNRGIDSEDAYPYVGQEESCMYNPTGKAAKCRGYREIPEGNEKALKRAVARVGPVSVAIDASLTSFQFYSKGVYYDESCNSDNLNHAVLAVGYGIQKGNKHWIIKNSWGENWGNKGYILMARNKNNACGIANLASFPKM
Description: IC50 determination against Cathepsin K (Biovision kit K150-100). The conditions noted are these: CTSK. How it is done:
as §1
IC50 of compounds against Cathepsin K was determined by using Cathepsin K Inhibitor Screening Kit (Product No. K150-100) from Biovision Company;
2.1.1.1 Preparation of Cathepsin K solution: Cathepsin K enzyme (23 μl) and Cathepsin K reagent (46 μl) were added to Cathepsin K buffer (2231 μl), and mixed well, to prepare Cathepsin K enzyme solution with a volume of 2.3 ml, which was placed on ice for further use.
as §2
2.1.3.1 Cathepsin K: Cathepsin K substrate (90 μl) was added to Cathepsin K buffer (1710 μl), and mixed well, to prepare Cathepsin K substrate solution with a volume of 1.8 ml, which was placed on ice for further use.
as §3, §4

For test [3], the target named is T2, Cathepsin K. Description: Preliminary screening of Cathepsin K (Cathepsin K Inhibitor Screening Kit K150-100, Biovision). The following applies: relative inhibition rate vs 10 μM FF-FMK control. How it is done: 1. Method for preliminary screening of Cathepsin K:
Preliminary screening of Cathepsin K was performed by using Cathepsin K Inhibitor Screening Kit (Product No. K150-100) from Biovision Company.
1.1.1 Preparation of Cathepsin K enzyme solution: Cathepsin K enzyme (40 μl) and Cathepsin K reagent (80 μl) were added to Cathepsin K buffer (3.88 ml), and were mixed well, to prepare Cathepsin K enzyme solution with a volume of 4 ml, which was placed on ice for further use.
1.1.2 Preparation of a compound solution: different compounds were separately weighed and dissolved in DMSO (methyl sulfoxide), to prepare solutions at a concentration of 30 mM as stock solutions, and for some insoluble compounds, they were prepared into solutions at a concentration of 10 mM as stock solutions; the 30 mM and 10 mM compound stock solutions were diluted to 1 mM and 100 μM DMSO solutions, respectively; 1 mM and 100 μM compound DMSO solutions (2 μl) were separately added to CTSK buffer (18 μl), to prepare compound solutions at a final concentration of 100 μM and 10 μM, respectively, wherein the concentration of DMSO was 10%.
1.1.3 Preparation of Cathepsin K substrate solution: Cathepsin K substrate (160 μl) was added to Cathepsin K buffer (3.44 ml), and mixed homogeneously, to prepare Cathepsin K substrate solution with a volume of 3.6 ml, which was placed on ice for further use.
1.2 Method for screening Cathepsin K inhibitor: Cathepsin K enzyme solution (prepared in Item 1.1.1) was added to a 384-well plate (ProxiPlate-384 Plus, Perkinelmer) at 10 μl/well, and centrifuged at 1000 rpm for 1 min; the compound solution (prepared in Item 1.1.2) was then added at 2 µl/well, and centrifuged at 1000 rpm for 1 min, and every concentration was repeated in two wells; the plate was placed in a 25° C. incubator for 15 min; Cathepsin K substrate solution was then added at 8 μl/well, and centrifuged at 1000 rpm for 1 min; and finally, the fluorescence signal was read in Enspire, wherein the exciting light was at a wavelength of 400 nm, the emitting light was at a wavelength of 505 nm, and continuous reading was performed at 37° C. for 120 min.
1.3 Data analysis: the slope (S) for all the samples was calculated by ΔRFU (RFU2−RFU1) and time ΔT (T2−T1), including negative control (Enzyme Control, EC) and positive control (Inhibitor Control, IC: 10 μM FF-FMK), and the calculation formula was as followed: Relative inhibition rate %=(SEC−SS)/(SEC−SIC)*100.

The mark [4] stands for this setting: Exp-1, read-out: IC50 (nM) Exp-1.
Setting [5] is: Exp-2, read-out: IC50 (nM) Exp-2.
The mark [6] stands for this setting: average of Exp-1 and Exp-2, read-out: Ave of IC50.

The structures appear in SMILES notation. Read-outs that look alike come from different tables or passages of the source.

T1 sequence (P25774 115-331): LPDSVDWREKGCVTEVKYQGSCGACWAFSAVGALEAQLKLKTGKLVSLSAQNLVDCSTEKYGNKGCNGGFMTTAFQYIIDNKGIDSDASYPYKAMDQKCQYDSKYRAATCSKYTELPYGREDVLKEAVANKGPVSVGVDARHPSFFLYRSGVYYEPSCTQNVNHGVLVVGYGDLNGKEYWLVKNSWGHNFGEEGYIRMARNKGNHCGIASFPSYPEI

The term IC50 denotes the concentration at which inhibition is half-maximal. `CCCNC(=O)[C@H]1O[C@@H]1C(=O)N[C@H](C(=O)N1CCC[C@H]1C(=O)O)[C@@H](C)CC` [zxy-60, CA-074, reference compound]: the IC50 in test [1] (setting [4]) is 3510 nM; in test [1] (setting [5]), 3230 nM; in test [1] (setting [6]) it was 3370 nM; in test [2] (setting [4]), 252 nM; in test [2] (setting [5]) it was 245 nM; in test [2] (setting [6]), 248 nM. The “Inhibition % (1 μM) replicate 1” value in test [3] (1 μM compound, replicate 1) was determined as 88.44%. In test [3] (1 μM compound, replicate 2), the “Inhibition % (1 μM) replicate 2” value was found to be 92.44%. Moreover, in test [3] (10 μM compound, replicate 1), the “Inhibition % (10 μM) replicate 1” value turned out to be 94.49%. The “Inhibition % (10 μM) replicate 2” value in test [3] (10 μM compound, replicate 2) worked out at 91.36%.
